In patent publication US12195588B2, “Polyether derivatives, uses, and methods of making the same” (P2 Science, Inc., priority 2017, dated 2025):
Like-named read-outs stand apart in the source and are kept apart here.

System: female Yellow Fever mosquitos (Aedes aegypti)
Assay type: in vivo
Protocol: Mosquitos are exposed to the treatments applied to 3-cm diameter collagen membranes placed over warmed, blood-filled wells in a multi-well plate. The wells are pre-warmed to 96-100° F., and then citrated whole blood with ATP is poured into each well to completely fill. The membrane is applied and secured using vacuum grease. To each membrane 25 microliters of the test solution is applied, and the solution is allowed to dry. The plate is then placed into a plastic box enclosure having 250 adult female mosquitos. The number of instances of a mosquito probing the membrane is recorded during a 20-minute period. The entire procedure is repeated until five replicates are complete. Treatment positions in the plates are rotated between each replicate to eliminate any positional bias. Fresh blood and mosquitoes are used in each replicate. Percent repellency is calculated by comparison to a negative control membrane treated only with water.
This is compared to a solution of DEET in IPA at 20% by weight as a control. The procedure is as described for Example 8.

[1] = Example 8, 25 microliters on membrane, 20-minute period, five replicates, DEET as 20% isopropanol solution
[2] = Example 8, by comparison to water-treated membrane, DEET as 20% isopropanol solution
[3] = Example 10, 20% by weight in IPA

Molecule | Mosquito Probes [1] | % Repellency [2] [%] | % Repellency [3] [%] | Mosquito Probes [3]
CCN(CC)C(=O)c1cccc(C)c1 [DEET, di-ethyl-meta-toluamide] | 0 | 100 | 100 | 0
citronellol dimer acetate [Sample B] | 0.6 | 98.8 | – | –
Citronellol dimer [Sample A] | 0.4 | 99.1 | – | –
